A short description of experiment [1]: Animal models of memory and cognition. The settings on record: in vivo. The text has this: In a first embodiment of the invention a suitable α7 agonist is spiro[1-azabicyclo[2.2.2]octane-3,5′-oxazolidine-2′-one (Compound 1, Table 1). […] This compound is disclosed in U.S. Pat. No. 5,902,814 the disclosure of which is incorporated herein in its entirety by reference. This compound is active in animal models of memory and cognition.

Experiment [2] has as its target nAChR α7 (Rattus norvegicus, UniProt Q05941). Description: Oocyte functional assay, two-electrode voltage clamp (Test C, FIG. 1). The settings on record: in words; currents in oocytes expressing nAChR α7 (FIG. 1). (In general: In two-electrode clamp one electrode senses voltage and the other passes current.)
Description: Xenopus oocytes Xenopus laevis frogs (Xenopus I, Kalamazoo, Mich.) were anesthetized using 0.15% tricaine. Oocytes were removed to OR2 solution: (in mM) 82 NaCl, 2.5 KCl, 5 HEPES, 1.5 NaH2PO4, 1 MgCl2, 0.1 EDTA, pH 7.4. The oocytes were defolliculated by incubation in 25 mL OR2 containing 0.2% collagenase 1A (SIGMA) two times for 60 min on a platform vibrating at 1 Hz and stored in Leibovitz's L-15 medium. Oocytes were injected the following day. Leibovitz's L-15 medium contained 50 μg/mL gentomycin, 10 units/mL penicillin, and 10 μg/mL streptomycin.
Preparation and injection of cRNA Rat nAChR α7 was cloned in-house (Luhowskyj). Non-polyadenylated cRNA was prepared from cDNA using mMessage mMachine SP6 (Ambion) according to the manufacturer's instructions.
Recording The external recording solution consisted of (in mM) 90 NaCl, 1 KCl, 1 MgCl2, 1 BaCl2, 5 HEPES, pH 7.4. […] Oocytes were impaled with two electrodes of 1-2 MΩ tip resistance when filled with 3M KCl. Recordings were begun when membrane potential became stable at potentials negative to −20 mV. Membrane potential was clamped at −80 mV unless otherwise noted. ACh, (−) was purchased from SIGMA.
Calculation of current amplitude and curve fitting Current amplitude was measured from baseline to peak. EC50's, maximal effect, and Hill slopes were estimated by fitting the data to the logistic equation using GraphPad Prism (GraphPad Software, Inc. San Diego, Calif.)
Data are fit by the logistic equation.
Experiment [3] has as its target T1, α7 nAChR subtype (Rattus norvegicus, UniProt Q05941).
T1 construct: Rat hippocampi were homogenized in 20 volumes of cold homogenisation buffer; from tissue; host or cells: rat hippocampus membranes
Description: 125I-α-Bungarotoxin (BTX) binding to rat hippocampal membranes (Test A).
Description: Test A—Assay for Affinity at α7 nAChR Subtype
Rat hippocampi were homogenized in 20 volumes of cold homogenisation buffer (HB): (in mM): tris(hydroxymethyl)aminomethane 50; MgCl2 1; NaCl 120; KCl 5: pH 7.4). The homogenate was centrifuged for 5 min at 1000 g, the supernatant was saved and the pellet re-extracted. The pooled supernatants were centrifuged for 20 min at 12000 g, washed, and re-suspended in HB.
(§1) Ki values were estimated using the general Cheng-Prusoff equation (A):
(§2) where a value of n=1 was used whenever nH<1.5 and a value of n−2 was used when nH≧1.5. Samples were assayed in triplicate and were typically ±5%. Ki values were determined using six or more drug concentrations.

The target in experiment [4] is T2, 5-HT3 (Rattus norvegicus, UniProt P35563).
T2 construct: using rat small-bowel muscularis membranes suspended in 50 mM Tris; from tissue; host or cells: rat small-bowel muscularis membranes
T2 sequence (P35563 24-483): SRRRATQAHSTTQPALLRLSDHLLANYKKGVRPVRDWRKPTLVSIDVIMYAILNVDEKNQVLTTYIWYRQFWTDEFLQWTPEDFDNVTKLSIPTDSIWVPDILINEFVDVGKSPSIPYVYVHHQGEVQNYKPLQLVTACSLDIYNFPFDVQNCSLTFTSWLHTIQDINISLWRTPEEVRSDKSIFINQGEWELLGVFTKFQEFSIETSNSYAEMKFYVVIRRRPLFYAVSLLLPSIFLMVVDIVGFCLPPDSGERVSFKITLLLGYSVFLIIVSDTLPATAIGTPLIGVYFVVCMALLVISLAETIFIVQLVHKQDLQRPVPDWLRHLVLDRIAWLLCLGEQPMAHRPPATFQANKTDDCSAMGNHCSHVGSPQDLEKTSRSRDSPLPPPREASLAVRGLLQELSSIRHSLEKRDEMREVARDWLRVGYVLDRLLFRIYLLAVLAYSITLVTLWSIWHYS
Description: [3H]zacopride binding to rat small-bowel muscularis membranes (Test B). The settings on record: 0.5 nM [3H]zacopride, read-out: Binding Affinity (Ki/nM) 5HT3.
Description: Test B—Assay for Affinity to the 5-HT3 nAChR Subtype
[^3]zacoipride binding. […] Incubation was continued for one hour.
Binding Data Analysis for Tests A and B
as §1, §2

The conditions of experiment [5]: complex spatial memory task, animal models; cited from earlier work.
For experiment [6] the following is noted: fibromyalgia patients treated with tropisetron; cited from earlier work.

The values that follow come from patent US20040259909A1, “Treatment of fibromyalgia syndrome” (priority 2001, published 2004).

Where two headings read alike, the source gives them in different places.

Chain of nAChR α7 (Q05941 23-502): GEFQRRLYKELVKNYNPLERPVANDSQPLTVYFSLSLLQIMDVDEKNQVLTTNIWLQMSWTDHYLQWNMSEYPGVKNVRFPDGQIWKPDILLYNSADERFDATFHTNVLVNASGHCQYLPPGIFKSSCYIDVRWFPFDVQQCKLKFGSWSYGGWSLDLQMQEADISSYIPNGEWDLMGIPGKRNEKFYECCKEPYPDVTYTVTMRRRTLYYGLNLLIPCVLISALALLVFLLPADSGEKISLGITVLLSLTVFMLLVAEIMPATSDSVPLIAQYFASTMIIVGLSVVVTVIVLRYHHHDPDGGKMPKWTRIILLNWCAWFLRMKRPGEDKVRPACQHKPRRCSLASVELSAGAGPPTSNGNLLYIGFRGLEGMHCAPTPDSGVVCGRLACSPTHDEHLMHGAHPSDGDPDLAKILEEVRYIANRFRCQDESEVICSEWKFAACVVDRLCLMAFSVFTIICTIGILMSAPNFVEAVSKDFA
T1 sequence (Q05941 23-502): as above

For the compound `O=C1NC[C@]2(CN3CCC2CC3)O1` [Compound 1, spiro[1-azabicyclo[2.2.2]octane-3,5′-oxazolidine-2′-one], the “activity in animal models of memory and cognition” value in experiment [1] is given as “active”. Further, in experiment [2], the “activity at the α7 receptor” value is reported as “selective α7 agonist”.
As to `c1cnc2c(c1)C[C@@]1(CN3CCC1CC3)O2` [Compound 2, spiro[1-azabicyclo[2.2.2]octane-3,2′-(3′H)-furo[2,3-b]pyridine]], in experiment [3] ([125I]α-BTX 5 nM, rat hippocampal membranes, read-out: Binding Affinity (Ki/nM) α7), the Ki stood at 14 nM.
As to `O=C(NC1CN2CCC1CC2)c1cc(-c2ccccc2)cs1` (stereo not shown) [Compound 3, N-(1-azabicyclo[2.2.2]oct-3-yl)(4-phenylthiophene-2-carboxamide)], the results for the Ki in experiment [3] and in experiment [4] were 1.6 nM and 20000 nM, respectively.
Turning to `Cc1nccn1CC1CCc2c(c3ccccc3n2C)C1=O` (stereo not shown) [ondansetron], the “antagonism of spatial navigation impairment” value in experiment [5] is given as “not”. Also, the “activity at the α7 receptor” value in experiment [2] is given as “lacked activity”.
On to `CN1[C@@H]2CC[C@H]1C[C@@H](OC(=O)c1c[nH]c3ccccc13)C2` [tropisetron], for which the “antagonism of spatial navigation impairment” value in experiment [5] is on record as “antagonize spatial navigation impairment”. In experiment [6], the “reduction in fibromyalgia symptoms” value is recorded as “statistically significant reduction in their symptoms”. Also, in experiment [2], the “activity at the α7 receptor” value was “potent and selective partial agonist”.
